Laboratory results from patent publication US4080471A, “Use of substituted isopropylaminopropanols for inducing inotropic effects of the human heart” (priority 1976, dated 1978).
Entries after “also recorded” stand apart in the source; their conditions may differ.

What was measured:
[1] = target: T1, beta-receptors of the blood vessels (Felis catus, UniProt Q9TST5); test: Vasodilatating effect (hind limb perfusion pressure) on anesthetized cat pretreated with reserpine; format: in vivo; details: cat, iv, read-out: ED50 Vasodilation
T1 construct: from tissue; host or cells: hind-limb vascular bed of the anaesthetized cat in vivo (constant-flow perfusion, reserpine-pretreated)
T1 sequence (Q9TST5 whole entry, the tested form may be a part): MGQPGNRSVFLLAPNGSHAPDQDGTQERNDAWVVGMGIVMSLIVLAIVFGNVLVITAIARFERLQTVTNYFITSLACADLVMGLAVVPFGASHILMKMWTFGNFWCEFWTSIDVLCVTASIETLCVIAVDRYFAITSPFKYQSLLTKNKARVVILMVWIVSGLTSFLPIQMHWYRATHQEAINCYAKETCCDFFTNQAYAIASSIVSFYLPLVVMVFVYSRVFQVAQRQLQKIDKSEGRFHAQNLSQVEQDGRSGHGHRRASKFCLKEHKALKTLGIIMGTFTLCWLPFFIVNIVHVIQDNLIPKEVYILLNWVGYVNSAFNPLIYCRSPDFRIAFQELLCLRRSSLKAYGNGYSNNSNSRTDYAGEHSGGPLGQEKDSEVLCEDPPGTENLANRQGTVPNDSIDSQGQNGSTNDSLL
Protocol: Chronotropic (heart frequency) and vasodilatating effects:
When the cats had been anaesthetized with Mebumal® 30 mg/kg bodyweight i.p., an artificial air respiration was started. The two vagus nerves were cut and the blood passing through a femoral artery was fed via a catheter and a pump back to the distal part of the vessel. Parallelly, a pressure transducer was connected by which the perfusion pressure was registered. At a perfusion with a constant flow, the perfusion pressure is directly proportional to the peripheral resistance of the vascular bed of the hind limb. Blood circulation in the foot was interrupted with a ligature. Heart frequency was registered with a cardiotachometer triggered by the ECG. The substances were administered intravenously in increasing doses and the dose-response curves of the heart frequency and the vasodilatation were constructed.
Further, the dose ratios (ED50 for vasodilatation/ED50 for heart frequency) are calculated. A dose ratio >1 indicates a heart selective effect.

[2] = tested on: heart; test: Effect on heart chronotropy and inotropy of a conscious dog
Excerpt: During anesthesia a catheter was introduced in the aorta, an electromagnetic flow probe was placed around the ascending aorta, and induction coils were placed diametrically on the inside of the left ventricle. The experiments were started about 2 weeks after the incision, when the dog had recovered completely.
When the dog was resting, the arterial blood pressure, the flow in the aorta, the maximum flow acceleration in the aorta (maximum dF/dt), heart frequency, the diameter of the left ventricle, and ECG were registered. The effects of compounds I and II were registered at 10, 20, and 30 minutes after administration. […] The compounds were given intravenously in the following doses. […] In order to eliminate vagal influence on the heart the dog was pretreated with methyl scopolamine 0.012 mg/kg bodyweight intramuscularily 20 minutes before the administration of the compounds. From the data giving the diameter of the left ventricle, the end diastolic volume was calculated according to E. W. Hawthorne. Mean ejection rate (ml/sec.) was calculated by dividing the stroke volume with the ejection time. […] The values given are the percentage changes after administration when the heart frequency has increased 10 beats per minute, values interpolated. […] In order to compare the inotropic effects of ouabain with those of the other compounds, the heart was stimulated in these experiments by electric pacing to a frequency which was 10 beats/minute above that registered before administration.
In order to investigate the absorption and duration of the effect, compounds I and II were given orally in an amount of 100 μg/kg bodyweight.

[3] = change i.v. at heart frequency +10 beats/min, interpolated, ouabain 30 μg/kg i.v., paced

CC(C)NCC(O)COc1ccc(O)cc1 (stereo not drawn) [Compound I, 1-isopropylamino-3-(p-hydroxyphenoxy)-propanol-2]
ED50 [1]: > 1 mg/kg | time of maximum effect, oral ([2]; 100 μg/kg bodyweight orally): 30 min | Enddiastolic volume ([2]; change i.v. at heart frequency +10 beats/min, interpolated, calculated from left ventricle diameter, ouabain 30 μg/kg i.v., paced): -9% | Stroke volume ([2]; change i.v. at heart frequency +10 beats/min, interpolated, methyl scopolamine pretreated, ouabain 30 μg/kg i.v., paced): 5% | Mean arterial blood pressure [2, 3]: 0 mm Hg | Peak aortic flow [2, 3]: 22% | Mean ejection rate ([2]; change i.v. at heart frequency +10 beats/min, interpolated, stroke volume / ejection time, ouabain 30 μg/kg i.v., paced): 13% | side effects ([2]; conscious dog, I and II 10 and 20 μg/kg, ouabain 30 μg/kg i.v.): No side effect was observed | contractility / inotropic effect in conscious dog (in words) ([2]; i.v.): clear inotropic effect without any significant increase of the heart frequency; also recorded: increases the contractility of the left ventricle | Max. dF/dt ([2]; maximum flow acceleration in aorta, change i.v. at heart frequency +10 beats/min, interpolated, ouabain 30 μg/kg i.v., paced): 43% | oral effect (in words) ([2]; oral, 100 μg/kg bodyweight): good inotropic effect when administered perorally and an acceptable duration of action; also recorded: comparable with those obtained after intravenous administration of 20 μg/kg bodyweight | positive inotropic effect compared with ouabain (in words) ([2]; versus relatively high dose of ouabain): quite comparable to the effect of a high dose of ouabain; also recorded: comparable to the effect of the relatively high dose of ouabain
